“And” between values parts separate entries of the source, which are not always exact repeats. Equal values may be shown once. “Also recorded” adds a separate entry of the source.
Experiments:
platelets [1] = conditions: platelets cryopreserved with DMSO; cited from earlier work
erythrocyte membranes = experiment: FTIR membrane phase transitions of intact erythrocytes (CH2 symmetric stretch around 2850 cm^-1)
mesenchymal stem cells [2] = experiment: Lucifer yellow CH loading of mesenchymal stem cells, viability by trypan blue exclusion; type: cell-based, human; conditions: LYCH loading over 3.5 hours, 37° C.
Text: Lucifer Yellow CH-Loading. […] The pellet was split between two treatments.

human platelets = experiment: Loading of platelets with trehalose, quantified by anthrone reaction; type: cell-based; conditions: 37° C., after 2 hours (rapid linear uptake)
Protocol: Loading of Platelets with Trehalose. Washed platelets in a concentration of 1-2 10^9 platelets/ml were incubated at various temperatures in the presence of 1-20 mg/ml trehalose. Incubation temperatures were chosen from 4° C. to 37° C. Incubation times were varied from 0.5 to 4 hours. After incubation the platelet solutions were washed in buffer A two times (by centrifugation at 14,000 RPM for 20 s in a table centrifuge). Platelet counts were obtained on a coulter counter. Platelets were pelleted (45 S at 14,000 RPM) and sugars were extracted from the pellet using 80% methanol. The samples were heated for 30 minutes at 80° C. […] The amount of trehalose in the platelets was quantified using the anthrone reaction (Umbreit et al., Mamometric and Biochemical Techniques, 5th Edition, 1972). […] Then the samples were cooled on ice and the absorbance was measured at 620 nm on a Perkin Elmer spectrophotometer. The amount of platelet associated trehalose was determined using a standard curve of trehalose.
Quantification of Trehalose and LYCH Concentration. Uptake was calculated for each sample as micrograms of trehalose or LYCH per platelet. The internal trehalose concentration was calculated assuming a platelet radius of 1.2 μm and by assuming that 50% of the platelet volume is taken up by the cytosol (rest is membranes). […]

platelets [3] = experiment: Stability and morphology of platelets during trehalose incubation (microscopy, flow cytometric analysis); type: cell-based, human; conditions: 4 hours incubation at 37° C., 25 mM external trehalose
Protocol: The stability of the platelets during a 4 hours incubation period was studied using microscopy and flow cytometric analysis. […] No signs of microvesicle formation could be observed after 4 hours incubation, as can be judged by the stable relative proportion of microvesicle gated cells (less than 3%). The formation of microvesicles is usually considered as the first sign of platelet activation (Owners et al., Trans. Med. Rev., 8, 27-44, 1994). Characteristic antigens of platelet activation include: glycoprotein 53 (gp53, a lysosomal membrane marker), PECAM-1 (platelet endothelial cell adhesion molecule-1, an alpha granule constituent), and P-selection (an alpha granule membrane protein).

mesenchymal stem cells [4] = experiment: Growth curves of mesenchymal stem cells in presence of 90 mM trehalose; type: cell-based, human
Protocol: Growth Curves. MSCs were plated into 12-welled plates at approximately the same seeding density used for T-185 flasks in standard Osiris protocols (5900 cells/cm^2 with fluid volume of 0.189 mL/cm^2). Three wells for each condition at each time point were trypsinized and counted. Data for cells grown in the presence of trehalose were lost for the first two time points. FIG. 13 is a graph illustrating growth curves for the mesenchymal stem cells in the presence or absence of 90 mM trehalose with the open triangle data representing cells grown in standard medium for 24 hours, after which 90 mM trehalose was added.

erythrocyte ghosts = experiment: FTIR thermotropic response of erythrocyte ghosts; type: cell-based, human; conditions: MβCD treated ghosts
Protocol: Cells were incubated at 37° C. for one hour in the presence of 10 mM methyl-β-cyclodextrin (MβCD) in order to remove cholesterol from the plasma membranes. Erythrocyte ghosts were prepared.
FTIR Spectroscopy and Sample Preparation. […] Intact cells were cooled to −5° C., kept at this temperature for 15 minutes, and then rewarmed to determine the phase transitions. […] Four scans were accumulated for each spectrum between 3600-900 cm^−1 at 4 cm^−1 resolution.
Inverted second derivative spectra were normalized on the lipid […] 2850 cm^−1. Band positions were determined as described previously. The wavenumber (cm^−1) of the CH2 symmetric stretching vibration was plotted as a function of temperature. […] For the protein studies, the spectral region between 1600 and 1500 cm^−1 selected.

[5] = Table III, Example 11, five blood donors, standard error, 10 mM MβCD

C[S+](C)[O-] [DMSO, dimethyl sulfoxide]
overall responsiveness of frozen thawed platelets to various agonists compared with fresh platelets (platelets [1]): less than 35%

CC(C)c1c(C(=O)Nc2ccccc2)c(-c2ccccc2)c(-c2ccc(F)cc2)n1CC[C@@H](O)C[C@@H](O)CC(=O)O [LIPITOR]
total wavenumber excursion (from −5 to 45° C.) (erythrocyte membranes; erythrocytes of a blood donor who used LIPITOR, other donors 0.8): ~1.5 cm⁻¹

NNC(=O)NN1C(=O)c2cc(S(=O)(=O)O)cc3c(N)c(S(=O)(=O)O)cc(c23)C1=O [LYCH, lucifer yellow CH]
viability (mesenchymal stem cells [2]): ~70%

OC[C@H]1O[C@H](O[C@H]2O[C@H](CO)[C@@H](O)[C@H](O)[C@H]2O)[C@H](O)[C@@H](O)[C@@H]1O [trehalose]
trehalose uptake (human platelets): 3.3×10^−10 mol/m^2s
morphological changes of platelets (platelets [3]): No morphological changes
effect on cell count (mesenchymal stem cells [4]; after the third day): cell count started to drop significantly
effect on growth of the cells (mesenchymal stem cells [4]; up to the third day): did not interfere with growth; also recorded: does not interfere with the growth and viability

methyl-β-cyclodextrin [MβCD]
transition temperature, first transition (erythrocyte ghosts): 4 °C
transition temperature, fourth transition (erythrocyte ghosts): 30 °C
transition temperature, second transition (erythrocyte ghosts): 12 °C
transition temperature, third transition (erythrocyte ghosts): 20 °C
wavenumber excursion from −5 to 45° C. (erythrocyte membranes; Example 10, after cholesterol removal (control 0.7)): 2.9 cm⁻¹
wavenumber excursion from −5 to 45° C. (erythrocyte membranes; Example 11, after cholesterol removal (control 0.7)): 2.9 cm⁻¹
Cooperativity, Low Transition (erythrocyte membranes; Table II, Example 10, 1 mM MβCD, 37° C., one hour): 0.051 ± 0.004 cm^−1/° C.
Cooperativity, High Transition (erythrocyte membranes; [5]): 0.091 cm^−1/° C. and 0.091 ± 0.020 cm^−1/° C.
Cooperativity, Low Transition (erythrocyte membranes; [5]): 0.051 ± 0.004 cm^−1/° C.
Cooperativity, Middle Transition (erythrocyte membranes; [5]): 0.095 cm^−1/° C. and 0.095 ± 0.015 cm^−1/° C.
Transition Temperature, High Transition (erythrocyte membranes; [5]): 35 °C and 35.4 ± 1.5 °C
Transition Temperature, Low Transition (erythrocyte membranes; [5]): 15 °C and 15.3 ± 0.8 °C
Transition Temperature, Middle Transition (erythrocyte membranes; [5]): 26 °C and 26.0 ± 0.8 °C

From US6770478B2, “Erythrocytic cells and method for preserving cells” (The Regents of the University of California, priority 2000, dated 2004)
